Activity calls are given as the source filed them. The rule behind the calls is not given here.
What was measured:
[1] = test system: Rattus norvegicus; test: Antihepatotoxic activity Rattus norvegicus albino Wistar (rat) assessed as recovery of CCl4-induced cell damage at 50 mg/kg, po by hematoxylin and eosin staining; assay type: functional, organism-based; parameters: dose 50 mg/kg
[2] = test system: Rattus norvegicus; test: Antihepatotoxic activity Rattus norvegicus albino Wistar (rat) assessed as reduction of CCl4-induced reduction of serum total protein level at 50 mg/kg, po relative to control; assay type: functional; parameters: scale not given: the % may be the effect or the level left
[3] = test system: Rattus norvegicus; test: Antihepatotoxic activity Rattus norvegicus albino Wistar (rat) assessed as reduction of CCl4-induced increase of serum ALP level at 50 mg/kg, po relative to control; assay type: functional; parameters: scale not given: the % may be the effect or the level left
[4] = test system: Rattus norvegicus; test: Antihepatotoxic activity Rattus norvegicus albino Wistar (rat) assessed as reduction of CCl4-induced increase of serum SGPT level at 50 mg/kg, po relative to control; assay type: functional; parameters: scale not given: the % may be the effect or the level left
[5] = test system: Rattus norvegicus; test: Antihepatotoxic activity Rattus norvegicus albino Wistar (rat) assessed as reduction of CCl4-induced increase of serum SGOT level at 50 mg/kg, po relative to control; assay type: functional; parameters: scale not given: the % may be the effect or the level left

SMILES: C=C(C)C(/C=C/[C@@H](C)[C@H]1CCC2C3CC=C4C[C@@H](O[C@@H]5O[C@H](CO)[C@@H](O)[C@H](O)[C@H]5O)CC[C@]4(C)C3CC[C@@]21C)CC (stereo not given in full)
- Activity [1]: Active
- Activity [2]: 121.19%
- Activity [3]: 74.77%
- Activity [4]: 52.25%
- Activity [5]: 57.71%
